According to patent US9951014B2, “Mammalian and bacterial nitric oxide synthase inhibitors” (Northwestern University, priority 2014, dated 2018):
Like-named read-outs stand apart in the source and are kept apart here.

Columns and labels:
rat nNOS = rat nNOS (Rattus norvegicus (Rat), UniProt P29476); experiment: Oxyhemoglobin NO capture assay with purified NOS; assay type: biochemical
Method: (§1) The oxyhemoglobin NO assays were performed with purified NOSs using a Biotek Gen5™ microplate reader as previously reported. […] For iNOS, calmodulin and CaCl2 were omitted because iNOS is calcium independent. […] The calculated standard deviations of the assays were less than 10% with all NOSs. […] The selectivity of antagonism of nNOS was determined by calculating the ratios of the Ki values with iNOS or eNOS to those with rat nNOS.

human nNOS = human nNOS (Homo sapiens (Human), UniProt P29475); experiment: Oxyhemoglobin NO capture assay with purified NOS; assay type: biochemical; conditions: Table 9; read-out: Ki H nNOS
Method: as §1

murine iNOS = murine iNOS (Mus musculus (Mouse), UniProt P29477); experiment: Oxyhemoglobin NO capture assay with purified NOS; assay type: biochemical; conditions: for i/n selectivity: ratio Ki iNOS / Ki rat nNOS
Method: as §1

bovine eNOS = bovine eNOS (Bos taurus (Bovine), UniProt P29473); experiment: Oxyhemoglobin NO capture assay with purified NOS; assay type: biochemical; conditions: for e/n selectivity: ratio Ki eNOS / Ki rat nNOS
Method: as §1

bsNOS [1] = target: T1, bsNOS (Bacillus subtilis (strain 168), UniProt O34453); experiment: Imidazole displacement, spectral binding constant KS
[2] = tested on: S. aureus UAMS1182 (MRSA); experiment: Effect of H2O2 and NOS inhibitors on S. aureus viability (CFU); assay type: cell-based, Staphylococcus aureus; conditions: for effect of co-treatment with H2O2 on killing of S. aureus: 200 μM inhibitor + 5 mM H2O2; for S. aureus survival, inhibitor alone: 200 μM inhibitor, WT and Δnos strains
bsNOS [3] = target: T1, bsNOS; conditions: cited from earlier work
eNOS = eNOS (Bos taurus (Bovine), UniProt P29473); conditions: literature data (footnotes a, c); read-out: KS eNOS; cited from earlier work
nNOS = nNOS (Rattus norvegicus (Rat), UniProt P29476); conditions: literature data (footnote b); read-out: KS nNOS; cited from earlier work
B. subtilis = experiment: Effect of oxidative/antimicrobial stress and NOS inhibitors on B. subtilis survival (CFU); assay type: cell-based, Bacillus subtilis
[4] = WT − KS, wild-type bsNOS, Table 8
[5] = wt B. subtilis, L-NNA, 1 at 500 μM, 2 at 250 μM

T1 sequence (O34453 whole entry): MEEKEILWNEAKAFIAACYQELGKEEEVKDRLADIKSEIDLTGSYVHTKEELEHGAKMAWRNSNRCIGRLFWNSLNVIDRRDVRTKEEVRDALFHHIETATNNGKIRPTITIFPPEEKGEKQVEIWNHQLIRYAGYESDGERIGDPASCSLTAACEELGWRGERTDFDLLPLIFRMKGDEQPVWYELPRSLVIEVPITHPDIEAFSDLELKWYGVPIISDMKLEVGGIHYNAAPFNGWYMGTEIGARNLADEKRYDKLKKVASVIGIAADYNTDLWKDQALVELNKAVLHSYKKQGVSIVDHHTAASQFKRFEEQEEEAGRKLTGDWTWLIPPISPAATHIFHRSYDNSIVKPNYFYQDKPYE

Compound	Ki (rat nNOS; Table 9, read-out: Ki Rat nNOS) [nM]	Ki (human nNOS) [nM]	Ki (murine iNOS; Table 9, read-out: Ki iNOS) [µM]	i/n selectivity (murine iNOS; Table 9)	Ki (bovine eNOS; Table 9, read-out: Ki eNOS) [µM]	e/n selectivity (bovine eNOS; Table 9)	also measured
CNCCN(C)c1cccc(CCc2cc(C)cc(N)n2)c1 [Compound 10a, N^1-(3-(2-(6-Amino-4-methylpyridin-2-yl)ethyl)phenyl)-N^1,N^2-dimethylethane-1,2-diamine]	130 ± 10	98 ± 5	5.34	41	20.2	156	
Cc1cc(N)nc(CCc2cccc(NCCN(C)C)c2)c1 [Compound 10b, N^1-(3-(2-(6-Amino-4-methylpyridin-2-yl)ethyl)phenyl)-N^2,N^2-dimethylethane-1,2-diamine]	190 ± 12	111 ± 9	5.43	29	23.7	125	
Cc1cc(N)nc(CCc2cccc(N(C)CCN)c2)c1 [Compound 10c, N^1-(3-(2-(6-Amino-4-methylpyridin-2-yl)ethyl)phenyl)-N^1-methylethane-1,2-diamine]	62 ± 4.1	56 ± 2	2.9	47	10.7	172	
Cc1cc(N)nc(CCc2cccc(N(C)CCCN)c2)c1 [Compound 10d, N^1-(3-(2-(6-Amino-4-methylpyridin-2-yl)ethyl)phenyl)-N^1-methylpropane-1,3-diamine]	430 ± 22	109 ± 3	4.64	11	10.7	25	
CNCCN(C)c1cncc(CCc2cc(C)cc(N)n2)c1 [Compound 14b, N^1-(5-(2-(6-Amino-4-methylpyridin-2-yl)ethyl)pyridin-3-yl)-N^1,N^2-dimethylethane-1,2-diamine]		59 ± 3.2			12.9		
Nc1ccc2ccc(CCNCCCc3cccc(F)c3)cc2n1 [Compound 19]							Kd (bsNOS [1]; KS (bsNOS), Table 5): 3.6 ± 0.8 µM; Kd (bsNOS [1]; [4]): 3.6 ± 0.8 µM; effect of co-treatment with H2O2 on killing of S. aureus [2]: significantly increases the H2O2-mediated killing; S. aureus survival, inhibitor alone [2]: reduced bacterial survival over time
CNCCN(C)c1cc(CCc2cc(C)cc(N)n2)cc(C(F)(F)F)c1 [Compound 19a, N^1-(3-(2-(6-Amino-4-methylpyridin-2-yl)ethyl)-5-(trifluoromethyl)phenyl)-N^1,N^2-dimethylethane-1,2-diamine]	67 ± 3.3	189 ± 16	8.13	122	15.9	238	
CNCCN(C)c1cc(F)cc(CCc2cc(C)cc(N)n2)c1 [Compound 19b, N^1-(3-(2-(6-Amino-4-methylpyridin-2-yl)ethyl)-5-fluorophenyl)-N^1,N^2-dimethylethane-1,2-diamine]	34 ± 1.2	105 ± 8.1	5.56		30.2		
Cc1cc(N)nc(-c2ccc(CNCCc3cccc(F)c3)cc2)c1 [Compound 27, 6-(4-(((3-Fluorophenethyl)amino)methyl)phenyl)-4-methylpyridin-2-amine]							Kd (bsNOS [1]; KS (bsNOS), Table 5): 8.9 ± 2 µM; Kd (bsNOS [1]; [4]): 8.8 ± 2 µM; Ki (rat nNOS): 525 nM; Ki (murine iNOS): 6.44 µM; Ki (bovine eNOS): 2.87 µM; effect of co-treatment with H2O2 on killing of S. aureus [2]: significantly increases the H2O2-mediated killing; S. aureus survival, inhibitor alone [2]: reduced bacterial survival over time
N=C(N)NCCC[C@H](N)C(=O)O [L-Arg, L-arginine]							Kd (bsNOS [1]; KS bsNOS, imidazole displacement, Tables 1 and 4): 0.76 µM; Kd (bsNOS [3]; read-out: WT − KS, wild-type bsNOS, referenced value (25)): 4.8 µM; Kd (eNOS): 1000 nM; Kd (nNOS): 720 nM
N=C(NCCC[C@H](N)C(=O)O)N[N+](=O)[O-] [L-NNA, N^ω-nitro-L-arginine, reference compound]							effect on bacterial % survival in the presence of ACR (B. subtilis; [5]): bacterial % survival decreased; effect on bacterial % survival in the presence of H2O2 (B. subtilis; [5]): trivial effects on bacterial survival
NC(=NCCC[C@H](N)C(=O)O)NO [NOHA, N-omega-hydroxy-L-arginine, reference compound]							fold difference in KS binding to bsNOS in presence vs absence of H4B (bsNOS [1]; 50 μM H4B): 1.2 fold; Kd (bsNOS [1]; presence of 50 μM H4B, read-out: KS bsNOS (+H4B)): 1.9 ± 0.1 µM; Kd (bsNOS [3]; absence of H4B, referenced values (8), (9), read-out: KS bsNOS (−H4B)): 3.2 µM
acriflavine							bacterial growth, % of control (B. subtilis; B. subtilis, agent alone (800 μM ACR or 500 μM NOS inhibitor)): 23 % of control
